Consider 1 molecule from patent publication US10342804B2, “Steroid compound for use in the treatment of hepatic encephalopathy” (Umecrine Cognition AB, priority 2014, dated 2019).

Data set [1] relates to blood ammonia. In words: Blood ammonia, hyperammonemic rats (Example 12). In kind it is in vivo, rat. As to conditions: 20 mg/Kg. How it is done:
Male Wistar rats (140-160 g) were made hyperammonemic by feeding them a diet containing ammonium acetate (30% by weight) (Felipo et al, European Journal of Biochemistry, 1988, 176, 567-571).
(§1) 3α-ethynyl-3β-hydroxyandrostan-17-one oxime in sesame oil was administered by subcutaneous injections in the back of the rats, once daily. Two different sets of experiments were performed in hyperammonemic rats. In the first set four groups of rats were used: 1) control rats injected with vehicle; 2) hyperammonemic rats injected with vehicle; 3) control rats injected with 20 mg/Kg of 3α-ethynyl-3β-hydroxyandrostan-17-one oxime and 4) hyperammonemic rats injected with 20 mg/Kg of 3α-ethynyl-3β-hydroxyandrostan-17-one oxime.
Blood ammonia was measured using the kit II Ammonia Arkray test (PocketChem BA, Arkray) using 20 μL of fresh blood following manufacturer's specifications.

Data set [2] is described as follows: Exposure in plasma and brain tissue, PCS rats (Example 13). In kind it is in vivo, rat. As to conditions: for Total concentration in plasma: at the time for behavioral testing. As to the method: Male Wistar rats (220-240 g) were anesthetized with isoflurane, and an end-to side porta-caval anastomosis was performed as described by Lee and Fisher (Surgery, 1961, 50, 668-672).
Rats that were subjected to the porta-caval anastomosis procedure are herein referred to as “PCS rats”.
as §1
For the experiments using PCS rats, the following groups of rats were used: 1) Sham rats injected with vehicle; 2) PCS rats injected with vehicle; 3-4) PCS rats injected with 0.7 or 2.5 mg/Kg of 3α-ethynyl-3β-hydroxyandrostan-17-one oxime. The number of rats used in each experiment is either shown in the corresponding Figure or given in the description of the corresponding Figure.
At the end of the treatment period plasma was collected from the tail vein, and after sacrifice by decapitation brains were collected and immediately frozen on dry ice. For analysis of 3α-ethynyl-3β-hydroxyandrostan-17-one oxime exposure, brain tissue was homogenized with a 1:4 ratio of tissue: PBS (pH 7.4) and then extracted with a 2-fold volume of methanol:acetonitrile (1:1), while plasma was protein-precipitated with a 3-fold volume with acetonitrile. Analyses were performed by Waters ACQUITY UPLC+Waters XEVO-TQS triple quadrupole mass spectrometer (Admescope Oy, Oulu, Finland). For calculations of the amount of free 3α-ethynyl-3β-hydroxyandrostan-17-one oxime exposure in the brain the fraction unbound (Fb) in brain homogenates were determined by dialysis, Fub in HA=[…] and Fub in PCS=1.43% (Admescope Oy, Oulu, Finland).

A further data set concerns hyperammonemic rats. Kind of data set: Motor coordination in the beam walking test, chronic hyperammonemia model (Example 4). Format: in vivo, rat. As to conditions: 20 mg/kg s.c. once daily, 3rd-4th week of treatment. From the text:
In this study an animal model of chronic hyperammonemia was used that reproduces many of the cognitive and motor alterations present in hepatic encephalopathy. Rats were fed with ammonia in their food and after two weeks with ammonia enriched food they developed symptoms of hepatic encephalopathy. The beam walking test was made during the 3rd and 4th week of 3α-ethynyl-3β-hydroxyandrostan-17-one oxime treatment while the Morris Water maze test was made during 4th-5th week of 3α-ethynyl-3β-hydroxyandrostan-17-one oxime treatment and the Radial maze test was made during 6th-7th week of 3α-ethynyl-3β-hydroxyandrostan-17-one oxime treatment.
The study was divided into two series with animals (male Wistar rats), each series included the following groups; Controls treated with vehicle (CV, n=8 per series), Controls treated with 3α-ethynyl-3β-hydroxyandrostan-17-one oxime (C+GAM, n=8 per series), hyperammonemic rats treated with vehicle (HAV, n=8 per series), hyperammonemic rats treated with 3α-ethynyl-3β-hydroxyandrostan-17-one oxime (HA+GAM, n=8 per series). […]
In the beam-walking test rats are trained to traverse an elevated, narrow beam to reach an enclosed escape platform. […] The parameters of motor coordination measured are: footslips (or foot faults) and latency to traverse the beam. […] The number of times the left or right hind paw slip off the beam was recorded for each trial.

Data set [3] has as its system receptors, ion channels and enzymes, including all major classes of neurotransmitter receptors. In words: Binding selectivity screen, 113 targets (Perkin Elmer customized screen). The conditions noted are these: 10 μM, duplicate; neurotransmitter related receptors, steroid receptors, peptide receptors. As to the method:
The binding of 3α-ethynyl-3β-hydroxyandrostan-17-one oxime was determined for receptors, ion channels and enzymes, including all major classes of neurotransmitter receptors. In total 113 targets were tested in duplicate with 3α-ethynyl-3β-hydroxyandrostan-17-one oxime at 10 μM (Perkin Elmer, Customized screen). Binding activity was defined as greater than or equal to 50% inhibition of ligand binding.

Data set [4] in a line: Concentrations in plasma and brain tissue after exogenous administration, LC-MS (Example 5). Format: in vivo, rat. The conditions noted are these: for Unbound brain concentration: 1-2 h after last treatment, seven weeks daily 20 mg/kg s.c. An excerpt:
(§2) The study was divided into two series with animals (male Wistar rats), each series included the following groups; Controls treated with vehicle (CV, n=8 per series), Controls treated with 3α-ethynyl-3β-hydroxyandrostan-17-one oxime (C+GAM, n=8 per series), hyperammonemic rats treated with vehicle (HAV, n=8 per series), hyperammonemic rats treated with 3α-ethynyl-3β-hydroxyandrostan-17-one oxime (HA+GAM, n=8 per series). The once daily treatment with 3α-ethynyl-3β-hydroxyandrostan-17-one oxime at 20 mg/kg or with vehicle was performed with subcutaneous injections of 1 ml/kg around 9 a.m. Treatment started one week after starting with the ammonium containing diet and continued for the whole experimental period.
(§3) Blood was obtained from the tail of the rats (from Example 2) in the end of second week of ammonia treatment and first week of 3α-ethynyl-3β-hydroxyandrostan-17-one oxime treatment and also from the neck during the animal sacrifice. To obtain the plasma it was added EDTA […] and centrifuged at 1500 r.p.m during 5 minutes.
Rats were sacrificed by decapitation. One half of the brain including the cerebellum was collected and conserved at −80° C. for determination of 3α-ethynyl-3β-hydroxyandrostan-17-one oxime. Different brain areas (cerebellum, cortex, hippocampus and striatum) were dissected and conserved at −80° C. for possible determination of GAMS.
Collected brain and plasma samples were analyzed for 3α-ethynyl-3β-hydroxyandrostan-17-one oxime concentrations. Plasma and brain samples were thawed at room temperature. Plasma was protein-precipitated with a 3-fold volume with acetonitrile and brain tissue was homogenized with a 1:4 ratio of tissue:PBS (pH 7.4) and then extracted with a 2-fold volume of methanol:acetonitrile (1:1) for 20 min during sonication. Thereafter samples were shaken and centrifuged for 10 min at 10 000×g (Heraeus Pico 17 centrifuge).
The supernatant was then diluted with an equal volume of PBS and analyzed. Some samples were reanalyzed as 10-fold dilutions due to too high concentration of 3α-ethynyl-3β-hydroxyandrostan-17-one oxime. […]

Data set [5] has as its system blood ammonia. Kind of data set: Ammonia determination in blood (Example 5). Format: in vivo, rat.
Excerpt: as §2, §3
Ammonia concentration in blood samples was measured using the Pocket chem BA (Woodley Equipment Company Ltd, United Kingdom), an ammonia analyzer. The device enables immediate testing and delivers results in 3 minutes and 20 s. It also eliminates the need for pre-processes such as centrifugal separation.

As for `C#C[C@]1(O)CC[C@@]2(C)C(CC[C@@H]3[C@@H]2CC[C@]2(C)/C(=N\O)CC[C@@H]32)C1` (stereo partly drawn) [3α-ethynyl-3β-hydroxyandrostan-17-one oxime], the figures for the Blood ammonia levels in the data set on blood ammonia [1], in the data set on blood ammonia [5] (control rats treated with 20 mg/kg s.c. once daily) and in the data set on blood ammonia [5] (hyperammonemic rats treated with 20 mg/kg s.c. once daily) were 139 ± 14 µM, 55 ± 7 µM and 139 ± 15 µM, respectively. The “Unbound concentration in the brain” value in data set [2] (0.7 mg/kg/day s.c.) was determined as 6.18 ± 0.97 nmol/kg; in data set [2] (2.5 mg/kg/day s.c.), 17 ± 2 nmol/kg. For the same molecule, the “Total concentration in plasma” value came out at 0.48 ± 0.09 µM in data set [2] (0.7 mg/kg/day s.c.) and 1.64 ± 0.30 µM in data set [2] (2.5 mg/kg/day s.c.). The “Motor in-coordination in the beam-walking test (slips)” value in the data set on hyperammonemic rats is given as “completely reversed motor in-coordination”. Also, the “Binding activity (greater than or equal to 50% inhibition of ligand binding)” value in data set [3] is reported as “did not show binding activity”. Further, the values for the Unbound brain concentration in data set [4] (HA rats) and in data set [4] (control rats) were 106 ± 15.4 nmol/kg and 91 ± 4.1 nmol/kg, respectively. In addition, in data set [4] (treatment day five, 20 mg/kg s.c., control and hyperammonemic rats), the “Total concentration in plasma, 23 hours vs 4 hours after injection” value was “lower 23 hours after injection than 4 hours after injection”.
